Patent US8952024B2, “Herbicidal pyrimidone derivatives” (E I du Pont de Nemours and Company, priority 2009, dated 2015)

What was measured:
Type in all cases: in vivo
[1] = tested on: Italian ryegrass (Lolium multiflorum); assay: Test B pre-/postemergence plant response
Outline: (§1)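 Steps: sow seed in loam–sand soil and spray preemergence, or grow plants in peat-based medium to 1–4 leaves (2–18 cm) and spray postemergence; formulation is non-phytotoxic solvent plus surfactant; hold in greenhouse 13–15 days; score visually vs controls, 0 = no effect, 100 = complete control.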

[2] = tested on: Surinam grass (Brachiaria decumbens); assay: Test B pre-/postemergence plant response
Outline: as §1

[3] = tested on: blackgrass (Alopecurus myosuroides); assay: Test B pre-/postemergence plant response
Outline: as §1

[4] = tested on: cocklebur (Xanthium strumarium); assay: Test B pre-/postemergence plant response
Outline: as §1

[5] = tested on: corn (Zea mays); assay: Test B pre-/postemergence plant response
Outline: as §1

[6] = tested on: downy bromegrass (Bromus tectorum); assay: Test B pre-/postemergence plant response
Outline: as §1

[7] = tested on: giant foxtail (Setaria faberii); assay: Test B pre-/postemergence plant response
Outline: as §1

[8] = tested on: morningglory (Ipomoea coccinea); assay: Test B pre-/postemergence plant response
Outline: as §1

[9] = tested on: pigweed (Amaranthus retroflexus); assay: Test B pre-/postemergence plant response
Outline: as §1

[10] = tested on: wild oat (Avena fatua); assay: Test B pre-/postemergence plant response
Outline: as §1

[11] = tested on: canarygrass (Phalaris minor); assay: Test B postemergence plant response; settings: for Canarygrass plant response rating: scale 0 to 100
Outline: (§2)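 Visual ratings from 0 (no effect) to 100 (complete control), made against controls 13–15 days after treatment, kept in a greenhouse. Compounds were applied postemergence to potted plants at the 1- to 4-leaf stage (2–18 cm).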

[12] = tested on: chickweed (Stellaria media); assay: Test B postemergence plant response; settings: for Chickweed plant response rating: scale 0 to 100
Outline: as §2

[13] = tested on: windgrass (Apera spica-venti); assay: Test B postemergence plant response
Outline: as §2

[14] = 250 g ai/ha, Preemergence, 0 to 100 scale
[15] = Postemergence, 62 g ai/ha, scale 0 (no effect) to 100 (complete control), 13 to 15 days
[16] = Postemergence, 125 g ai/ha, visual rating after 13 to 15 days, scale 0 (no effect) to 100 (complete control)
[17] = Preemergence, 31 g ai/ha, scale 0 to 100 (0 no effect, 100 complete control)
[18] = Preemergence, 125 g ai/ha, 0 to 100 scale
[19] = Postemergence, 31 g ai/ha, scale 0 to 100 (0 no effect, 100 complete control)
[20] = Postemergence, 250 g ai/ha, scale 0 to 100
[21] = Preemergence, 62 g ai/ha, scale 0 to 100 (0 no effect, 100 complete control)
[22] = 31 g ai/ha, postemergence, scale 0 to 100, 0 is no effect, 100 is complete control
[23] = 62 g ai/ha, postemergence, 0 is no effect, 100 is complete control, 13 to 15 days
[24] = Postemergence, 250 g ai/ha, scale 0 to 100 (0 no effect, 100 complete control)

Compound: Cc1c(Cl)cccc1-n1c(-c2ccccc2)ncc(C(=O)C2=C(O)CCCC2=O)c1=O [Compound 40]
- Plant response rating, Ryegrass, Italian [1, 14]: 5
- Plant response rating, Ryegrass, Italian [1, 15]: 0
- Plant response rating, Ryegrass, Italian [1, 16]: 0
- Plant response rating, Ryegrass, Italian [1, 17]: 0
- Ryegrass, Italian plant response rating [1, 18]: 5
- Plant response rating, Surinam Grass [2, 14]: 90
- Plant response rating, Surinam Grass [2, 15]: 95
- Plant response rating, Surinam Grass [2, 16]: 98
- Plant response rating, Surinam Grass [2, 17]: 40
- Surinam Grass plant response rating [2, 18]: 85
- Plant response rating, Blackgrass [3, 14]: 5
- Plant response rating, Blackgrass [3, 19]: 0
- Plant response rating, Blackgrass [3, 15]: 10
- Plant response rating, Blackgrass [3, 16]: 10
- Blackgrass plant response rating [3, 20]: 15
- Plant response rating, Blackgrass [3, 17]: 0
- Plant response rating, Blackgrass [3, 21]: 0
- Blackgrass plant response rating [3, 18]: 0
- Plant response rating, Cocklebur [4, 14]: 100
- Plant response rating, Cocklebur [4, 17]: 65
- Cocklebur plant response rating [4, 18]: 85
- Plant response rating, Corn [5, 14]: 0
- Plant response rating, Corn [5, 19]: 80
- Plant response rating, Corn [5, 15]: 80
- Plant response rating, Corn [5, 16]: 85
- Corn plant response rating [5, 20]: 90
- Plant response rating, Corn [5, 17]: 0
- Plant response rating, Corn [5, 21]: 0
- Corn plant response rating [5, 18]: 0
- Plant response rating, Bromegrass, Downy [6, 14]: 10
- Plant response rating, Bromegrass, Downy [6, 19]: 45
- Plant response rating, Bromegrass, Downy [6, 15]: 50
- Plant response rating, Bromegrass, Downy [6, 16]: 70
- Bromegrass, Downy plant response rating [6, 20]: 85
- Plant response rating, Bromegrass, Downy [6, 17]: 0
- Plant response rating, Bromegrass, Downy [6, 21]: 0
- Bromegrass, Downy plant response rating [6, 18]: 5
- Plant response rating, Foxtail, Giant [7, 14]: 98
- Plant response rating, Foxtail, Giant [7, 19]: 100
- Plant response rating, Foxtail, Giant [7, 15]: 100
- Plant response rating, Foxtail, Giant [7, 16]: 100
- Foxtail, Giant plant response rating [7, 20]: 100
- Plant response rating, Foxtail, Giant [7, 17]: 10
- Plant response rating, Foxtail, Giant [7, 21]: 65
- Foxtail, Giant plant response rating [7, 18]: 80
- Plant response rating, Morningglory [8, 14]: 65
- Plant response rating, Morningglory [8, 16]: 75
- Plant response rating, Morningglory [8, 17]: 0
- Plant response rating, Morningglory [8, 21]: 0
- Morningglory plant response rating [8, 18]: 0
- Plant response rating, Pigweed [9, 14]: 100
- Plant response rating, Pigweed [9, 15]: 98
- Plant response rating, Pigweed [9, 16]: 100
- Plant response rating, Pigweed [9, 17]: 98
- Pigweed plant response rating [9, 18]: 100
- Plant response rating, Oat, Wild [10, 14]: 30
- Plant response rating, Oat, Wild [10, 15]: 85
- Plant response rating, Oat, Wild [10, 16]: 90
- Plant response rating, Oat, Wild [10, 17]: 0
- Oat, Wild plant response rating [10, 18]: 0
- Plant response rating, Canarygrass [11, 19]: 20
- Plant response rating, Canarygrass [11, 15]: 20
- Plant response rating, Canarygrass [11, 16]: 30
- Canarygrass plant response rating ([11]; Postemergence, 250 g ai/ha): 35
- Plant response rating, Chickweed [12, 19]: 100
- Plant response rating, Chickweed [12, 15]: 100
- Plant response rating, Chickweed [12, 16]: 100
- Chickweed plant response rating ([12]; Postemergence, 250 g ai/ha): 100
- Plant response rating, Windgrass [13, 15]: 70
- Plant response rating, Windgrass [13, 16]: 80

Compound: Cc1ccc(-n2c(-c3ccccc3)ncc(C(=O)C3=C(O)CCCC3=O)c2=O)cc1 [Compound 8]
- Plant response rating, Ryegrass, Italian [1, 19]: 20
- Plant response rating, Ryegrass, Italian [1, 15]: 20
- Plant response rating, Ryegrass, Italian [1, 16]: 30
- Ryegrass, Italian plant response rating [1, 20]: 50
- Plant response rating, Surinam Grass [2, 19]: 60
- Plant response rating, Surinam Grass [2, 15]: 65
- Plant response rating, Surinam Grass [2, 16]: 75
- Surinam Grass plant response rating [2, 20]: 80
- Plant response rating, Blackgrass [3, 19]: 5
- Plant response rating, Blackgrass [3, 15]: 10
- Plant response rating, Blackgrass [3, 16]: 10
- Blackgrass plant response rating [3, 20]: 20
- Plant response rating, Cocklebur [4, 19]: 100
- Plant response rating, Cocklebur [4, 15]: 100
- Plant response rating, Cocklebur [4, 16]: 100
- Cocklebur plant response rating [4, 20]: 100
- Plant response rating, Corn [5, 19]: 15
- Plant response rating, Corn [5, 15]: 65
- Plant response rating, Corn [5, 16]: 75
- Corn plant response rating [5, 20]: 80
- Plant response rating, Bromegrass, Downy [6, 19]: 5
- Plant response rating, Bromegrass, Downy [6, 15]: 5
- Plant response rating, Bromegrass, Downy [6, 16]: 10
- Bromegrass, Downy plant response rating [6, 20]: 10
- Plant response rating, Foxtail, Giant [7, 19]: 98
- Plant response rating, Foxtail, Giant [7, 15]: 100
- Plant response rating, Foxtail, Giant [7, 16]: 100
- Foxtail, Giant plant response rating [7, 20]: 100
- Plant response rating, Morningglory [8, 19]: 75
- Plant response rating, Morningglory [8, 15]: 90
- Plant response rating, Morningglory [8, 16]: 100
- Morningglory plant response rating [8, 20]: 100
- Plant response rating, Pigweed [9, 19]: 98
- Plant response rating, Pigweed [9, 15]: 100
- Plant response rating, Pigweed [9, 16]: 100
- Pigweed plant response rating [9, 20]: 100
- Plant response rating, Oat, Wild [10, 19]: 10
- Plant response rating, Oat, Wild [10, 15]: 15
- Plant response rating, Oat, Wild [10, 16]: 35
- Oat, Wild plant response rating [10, 20]: 35
- Plant response rating, Canarygrass [11, 19]: 20
- Plant response rating, Canarygrass [11, 15]: 50
- Plant response rating, Canarygrass [11, 16]: 70
- Canarygrass plant response rating ([11]; Postemergence, 250 g ai/ha): 85
- Plant response rating, Chickweed [12, 19]: 98
- Plant response rating, Chickweed [12, 15]: 100
- Plant response rating, Chickweed [12, 16]: 100
- Chickweed plant response rating ([12]; Postemergence, 250 g ai/ha): 100
- Plant response rating, Windgrass [13, 19]: 5
- Plant response rating, Windgrass [13, 15]: 20
- Plant response rating, Windgrass [13, 16]: 30
- Windgrass plant response rating [13, 20]: 40

Compound: Cc1ccccc1-c1ncc(C(=O)C2=C(O)CCCC2=O)c(=O)n1-c1ccccc1 [Compound 82]
- Plant response rating, Ryegrass, Italian [1, 22]: 0
- Ryegrass, Italian plant response rating (0 to 100 scale) [1, 23]: 0
- Plant response rating, Ryegrass, Italian [1, 16]: 5
- Plant response rating, Ryegrass, Italian [1, 24]: 10
- Plant response rating, Surinam Grass [2, 22]: 65
- Surinam Grass plant response rating (0 to 100 scale) [2, 23]: 65
- Plant response rating, Surinam Grass [2, 16]: 75
- Plant response rating, Surinam Grass [2, 24]: 80
- Plant response rating, Blackgrass [3, 22]: 0
- Blackgrass plant response rating (0 to 100 scale) [3, 23]: 0
- Plant response rating, Blackgrass [3, 16]: 5
- Plant response rating, Blackgrass [3, 24]: 15
- Plant response rating, Cocklebur [4, 22]: 85
- Cocklebur plant response rating (0 to 100 scale) [4, 23]: 90
- Plant response rating, Cocklebur [4, 16]: 95
- Plant response rating, Cocklebur [4, 24]: 100
- Plant response rating, Corn [5, 22]: 0
- Corn plant response rating (0 to 100 scale) [5, 23]: 5
- Plant response rating, Corn [5, 16]: 5
- Plant response rating, Corn [5, 24]: 15
- Plant response rating, Bromegrass, Downy [6, 22]: 0
- Bromegrass, Downy plant response rating (0 to 100 scale) [6, 23]: 0
- Plant response rating, Bromegrass, Downy [6, 16]: 5
- Plant response rating, Bromegrass, Downy [6, 24]: 30
- Plant response rating, Foxtail, Giant [7, 22]: 75
- Foxtail, Giant plant response rating (0 to 100 scale) [7, 23]: 80
- Plant response rating, Foxtail, Giant [7, 16]: 95
- Plant response rating, Foxtail, Giant [7, 24]: 95
- Plant response rating, Morningglory [8, 22]: 65
- Morningglory plant response rating (0 to 100 scale) [8, 23]: 100
- Plant response rating, Morningglory [8, 16]: 100
- Plant response rating, Morningglory [8, 24]: 100
- Plant response rating, Pigweed [9, 22]: 75
- Pigweed plant response rating (0 to 100 scale) [9, 23]: 98
- Plant response rating, Pigweed [9, 16]: 100
- Plant response rating, Pigweed [9, 24]: 100
- Plant response rating, Oat, Wild [10, 22]: 0
- Oat, Wild plant response rating (0 to 100 scale) [10, 23]: 0
- Plant response rating, Oat, Wild [10, 16]: 5
- Plant response rating, Oat, Wild [10, 24]: 10
- Plant response rating, Canarygrass [11, 22]: 0
- Canarygrass plant response rating (0 to 100 scale) [11, 23]: 0
- Plant response rating, Canarygrass [11, 16]: 15
- Plant response rating, Canarygrass [11, 24]: 35
- Plant response rating, Chickweed [12, 22]: 90
- Chickweed plant response rating (0 to 100 scale) [12, 23]: 90
- Plant response rating, Chickweed [12, 16]: 98
- Plant response rating, Chickweed [12, 24]: 100
- Plant response rating, Windgrass [13, 22]: 5
- Windgrass plant response rating (0 to 100 scale) [13, 23]: 5
- Plant response rating, Windgrass [13, 16]: 20
- Plant response rating, Windgrass [13, 24]: 50
